Converted amounts (≈) assume the structure as drawn. The source made the active and inactive calls. The rule behind the calls is not given here. Some results are limits rather than exact numbers.

Results on three compounds are retold here after ChEMBL document CHEMBL5543097, “Synthesis and structure-activity relationships of novel 14-membered 2-fluoro ketolides with structural modification at the C11 position” (Eur J Med Chem, 2024).

Data set [1] deals with Staphylococcus epidermidis. The data set can be described thus: Antibacterial activity against erythromycin-resistant Staphylococcus epidermidis 19-4 assessed as inhibition of visible bacterial growth incubated for 18 hrs by broth microdilution method. It counts as functional. Background: Dilution methods test growth across graded concentrations, often in twofold steps.
The next data set relates to Streptococcus pyogenes. As to the kind of experiment: Antibacterial activity against erythromycin-resistant Streptococcus pyogenes ATCC 19615 assessed as inhibition of visible bacterial growth incubated for 18 hrs by broth microdilution method. It counts as functional.
Data set [2] relates to Staphylococcus epidermidis. As to the kind of experiment: Antibacterial activity against erythromycin-resistant Staphylococcus epidermidis 19-9 assessed as inhibition of visible bacterial growth incubated for 18 hrs by broth microdilution method. It counts as functional.
Data set [3] concerns Moraxella catarrhalis. As to the kind of experiment: Antibacterial activity against Moraxella catarrhalis BCA 19-31 assessed as inhibition of bacterial growth incubated for 24 hrs by CLSI based broth microdilution method. It counts as functional. The settings on record: BCA 19-31, 24 h.
The test system of a further data set is Staphylococcus aureus. As to the kind of experiment: Antibacterial activity against Staphylococcus aureus ATCC 700699 assessed as inhibition of visible bacterial growth. It counts as functional.
The subject of data set [4] is Staphylococcus epidermidis. The data set can be described thus: Antibacterial activity against erythromycin-resistant Staphylococcus epidermidis 19-5 assessed as inhibition of visible bacterial growth incubated for 18 hrs by broth microdilution method. It counts as functional.
In data set [5] the test system is Staphylococcus epidermidis. As to the kind of experiment: Antibacterial activity against erythromycin-resistant Staphylococcus epidermidis 19-8 assessed as inhibition of visible bacterial growth incubated for 18 hrs by broth microdilution method. It counts as functional.
For data set [6], the system named is Moraxella catarrhalis. The data set can be described thus: Antibacterial activity against Moraxella catarrhalis BCA 19-5 assessed as inhibition of bacterial growth incubated for 24 hrs by CLSI based broth microdilution method. It counts as functional. The settings on record: Moraxella catarrhalis, BCA 19-5, 24 h, read-out: MIC.
For data set [7], the system named is Haemophilus influenzae. As to the kind of experiment: Antibacterial activity against Haemophilus influenzae HIN 19-15 assessed as inhibition of bacterial growth incubated for 20 to 24 hrs by CLSI based broth microdilution method. It counts as functional. The conditions noted are these: time 20-24 hrs.
The subject of data set [8] is Staphylococcus epidermidis. The data set can be described thus: Antibacterial activity against erythromycin-resistant Staphylococcus epidermidis 19-11 assessed as inhibition of visible bacterial growth incubated for 18 hrs by broth microdilution method. It counts as functional.
Data set [9] deals with Streptococcus pneumoniae. As to the kind of experiment: Antibacterial activity against erythromycin-resistant Streptococcus pneumoniae SPN19-14 assessed as inhibition of visible bacterial growth incubated for 18 hrs by broth microdilution method. It counts as functional.
The nature of data set [10]: Cytotoxicity against mouse AML12 cells assessed as reduction in cell viability incubated for 48 hrs by MTT assay. It counts as toxicity, cell-based. For orientation: Tetrazolium assays rely on reduction of a dye to a coloured formazan, in cell work by metabolically active cells.
Data set [11] concerns Streptococcus pneumoniae. As to the kind of experiment: Antibacterial activity against erythromycin-resistant Streptococcus pneumoniae SPN19-13 assessed as inhibition of visible bacterial growth incubated for 18 hrs by broth microdilution method. It counts as functional.
Data set [12] relates to Staphylococcus epidermidis. The data set can be described thus: Antibacterial activity against erythromycin-resistant Staphylococcus epidermidis 19-6 assessed as inhibition of visible bacterial growth incubated for 18 hrs by broth microdilution method. It counts as functional.
For data set [13], the system named is Streptococcus agalactiae. As to the kind of experiment: Antibacterial activity against erythromycin-resistant Streptococcus agalactiae 19-8 assessed as inhibition of visible bacterial growth incubated for 18 hrs by broth microdilution method. It counts as functional.
In data set [14] the test system is Streptococcus pneumoniae. The data set can be described thus: Antibacterial activity against erythromycin-resistant Streptococcus pneumoniae SPN19-8 assessed as inhibition of visible bacterial growth incubated for 18 hrs by broth microdilution method. It counts as functional.
Data set [15] has as its system Moraxella catarrhalis. The data set can be described thus: Antibacterial activity against Moraxella catarrhalis BCA 19-6 assessed as inhibition of bacterial growth incubated for 24 hrs by CLSI based broth microdilution method. It counts as functional. The settings on record: Moraxella catarrhalis, BCA 19-6, 24 h, read-out: MIC.
In data set [16] the test system is Haemophilus influenzae. The data set can be described thus: Antibacterial activity against Haemophilus influenzae HIN 19-18 assessed as inhibition of bacterial growth incubated for 20 to 24 hrs by CLSI based broth microdilution method. It counts as functional. The conditions noted are these: HIN 19-18, time 20-24 hrs.
Data set [17] concerns Streptococcus agalactiae. As to the kind of experiment: Antibacterial activity against erythromycin-resistant Streptococcus agalactiae 19-9 assessed as inhibition of visible bacterial growth incubated for 18 hrs by broth microdilution method. It counts as functional.
The test system of data set [18] is Staphylococcus epidermidis. As to the kind of experiment: Potency index, ratio of telithromycin MIC to test compound MIC for antibacterial activity against erythromycin-resistant Staphylococcus epidermidis 19-8 assessed as inhibition of visible bacterial growth incubated for 18 hrs by broth microdilution method. It counts as functional.
Data set [19] relates to Staphylococcus epidermidis. The data set can be described thus: Potency index, ratio of telithromycin MIC to test compound MIC for antibacterial activity against erythromycin-resistant Staphylococcus epidermidis 19-11 assessed as inhibition of visible bacterial growth incubated for 18 hrs by broth microdilution method. It counts as functional.
Data set [20] concerns Staphylococcus epidermidis. As to the kind of experiment: Potency index, ratio of telithromycin MIC to test compound MIC for antibacterial activity against erythromycin-resistant Staphylococcus epidermidis 19-6 assessed as inhibition of visible bacterial growth incubated for 18 hrs by broth microdilution method. It counts as functional.
For another data set, the system named is Enterococcus faecium. The data set can be described thus: Antibacterial activity against vancomycin-resistant Enterococcus faecium assessed as inhibition of visible bacterial growth. It counts as functional.
The subject of data set [21] is Streptococcus pneumoniae. The data set can be described thus: Potency index, ratio of telithromycin MIC to test compound MIC for antibacterial activity against Streptococcus pneumoniae SPN19-14 assessed as inhibition of visible bacterial growth incubated for 18 hrs by broth microdilution method. It counts as functional.
Data set [22] has as its system Staphylococcus epidermidis. The data set can be described thus: Potency index, ratio of telithromycin MIC to test compound MIC for antibacterial activity against erythromycin-resistant Staphylococcus epidermidis 19-4 assessed as inhibition of visible bacterial growth incubated for 18 hrs by broth microdilution method. It counts as functional.
For data set [23], the system named is Streptococcus pneumoniae. The data set can be described thus: Potency index, ratio of telithromycin MIC to test compound MIC for antibacterial activity against Streptococcus pneumoniae SPN19-8 assessed as inhibition of visible bacterial growth incubated for 18 hrs by broth microdilution method. It counts as functional.
Data set [24] has as its system Staphylococcus epidermidis. The data set can be described thus: Potency index, ratio of telithromycin MIC to test compound MIC for antibacterial activity against erythromycin-resistant Staphylococcus epidermidis 19-9 assessed as inhibition of visible bacterial growth incubated for 18 hrs by broth microdilution method. It counts as functional.
The subject of data set [25] is Streptococcus pneumoniae. The data set can be described thus: Potency index, ratio of telithromycin MIC to test compound MIC for antibacterial activity against Streptococcus pneumoniae SPN19-13 assessed as inhibition of visible bacterial growth incubated for 18 hrs by broth microdilution method. It counts as functional.
Data set [26] relates to Staphylococcus epidermidis. As to the kind of experiment: Potency index, ratio of telithromycin MIC to test compound MIC for antibacterial activity against erythromycin-resistant Staphylococcus epidermidis 19-5 assessed as inhibition of visible bacterial growth incubated for 18 hrs by broth microdilution method. It counts as functional.
For another data set, the system named is Enterococcus faecalis. As to the kind of experiment: Antibacterial activity against Enterococcus faecalis ATCC 51575 assessed as inhibition of visible bacterial growth. It counts as functional, organism-based.

Usually CC50 stands for the concentration giving 50% cytotoxicity. `CC[C@H]1OC(=O)[C@H](C)C(=O)[C@H](C)[C@@H](O[C@@H]2O[C@H](C)C[C@H](N(C)C)[C@H]2O)[C@](C)(OC)C[C@@H](C)C(=O)[C@H](C)[C@H]2N(CCCCn3cnc(-c4cccnc4)c3)C(=O)O[C@]12C` [TELITHROMYCIN]: the MIC in data set [1] was more than 64 µg/mL; with Streptococcus pyogenes, less than 0.03 µg/mL; in data set [2], 0.5 µg/mL (≈ 0.616 µM); with Moraxella catarrhalis [3], 0.25 µg/mL (≈ 0.308 µM); in the data set with Staphylococcus aureus, 16 µg/mL (≈ 19.7 µM); in data set [4] it was 0.25 µg/mL (≈ 0.308 µM). The MIC in data set [5] was more than 64 µg/mL; in the data set on Moraxella catarrhalis [6] it was 0.25 µg/mL (≈ 0.308 µM); with Haemophilus influenzae [7], 4 µg/mL (≈ 4.93 µM); in [8], 0.25 µg/mL (≈ 0.308 µM); in the data set with Streptococcus pneumoniae [9], 0.25 µg/mL (≈ 0.308 µM); with Streptococcus pneumoniae [11] it was 0.25 µg/mL (≈ 0.308 µM). The MIC in data set [12] was 64 µg/mL (≈ 78.8 µM); with Streptococcus agalactiae [13], less than 0.03 µg/mL; with Streptococcus pneumoniae [14] it was 0.5 µg/mL (≈ 0.616 µM); in the data set on Moraxella catarrhalis [15], 0.25 µg/mL (≈ 0.308 µM); in the data set on Haemophilus influenzae [16] it was 4 µg/mL (≈ 4.93 µM); with Streptococcus agalactiae [17] it was 0.125 µg/mL (≈ 0.154 µM). Besides, the half-maximal cytotoxic concentration (CC50) at 48 h in [10] was more than 100 µM.
For the compound `CC[C@H]1OC(=O)[C@@](C)(F)C(=O)[C@H](C)[C@@H](O[C@@H]2O[C@H](C)C[C@H](N(C)C)[C@H]2O)[C@](C)(OC)C[C@@H](C)C(=O)[C@H](C)[C@H]2N(CCCOC(=O)Nc3ccc4ccccc4c3)C(=O)O[C@]12C`, the MIC in data set [1] is less than 0.03 µg/mL; in the data set with Streptococcus pyogenes it was less than 0.03 µg/mL; in [2], 0.125 µg/mL (≈ 0.146 µM); in the data set on Moraxella catarrhalis [3], less than 0.03 µg/mL; with Staphylococcus aureus it was 16 µg/mL (≈ 18.6 µM); in [4], less than 0.03 µg/mL. Further, the MIC is less than 0.03 µg/mL in data set [5]; less than 0.03 µg/mL with Moraxella catarrhalis [6]; 16 µg/mL (≈ 18.6 µM) in the data set on Enterococcus faecium; 8 µg/mL (≈ 9.32 µM) with Haemophilus influenzae [7]; less than 0.03 µg/mL in [8]; less than 0.03 µg/mL in the data set with Streptococcus pneumoniae [9]. In addition, the MIC in the data set with Streptococcus pneumoniae [11] was less than 0.03 µg/mL; in data set [12] it was less than 0.03 µg/mL; in the data set on Streptococcus agalactiae [13] it was less than 0.03 µg/mL; with Streptococcus pneumoniae [14] it was 0.25 µg/mL (≈ 0.291 µM); with Moraxella catarrhalis [15] it was less than 0.03 µg/mL; in the data set on Haemophilus influenzae [16], 2 µg/mL (≈ 2.33 µM). The MIC in the data set with Streptococcus agalactiae [17] worked out at 0.5 µg/mL (≈ 0.583 µM). The Ratio in data set [18] is on record as 4; in [19], 4; in data set [20] it was 4; in the data set on Streptococcus pneumoniae [21], less than 4; in data set [22], 4; in the data set on Streptococcus pneumoniae [23], less than 4. Besides, the figures for the Ratio (in [24]; with Streptococcus pneumoniae [25]; in [26]) were 4, less than 4 and 4, respectively. In [10], the CC50 at 48 h is 18.5 µM.
For `CC[C@H]1OC(=O)[C@@](C)(F)C(=O)[C@H](C)[C@@H](O[C@@H]2O[C@H](C)C[C@H](N(C)C)[C@H]2O)[C@](C)(OC)C[C@@H](C)C(=O)[C@H](C)[C@H]2N(CCCOC(=O)Nc3ccc(C(C)C)cc3)C(=O)O[C@]12C`, the MIC was 0.125 µg/mL (≈ 0.147 µM) in [1]; less than 0.03 µg/mL in the data set on Streptococcus pyogenes; 1 µg/mL (≈ 1.18 µM) in data set [2]; 1 µg/mL (≈ 1.18 µM) with Moraxella catarrhalis [3]; less than 0.03 µg/mL in [4]; less than 0.03 µg/mL in data set [5]. Further, the MIC in the data set with Moraxella catarrhalis [6] was determined as 0.5 µg/mL (≈ 0.588 µM); in the data set with Enterococcus faecium, 16 µg/mL (≈ 18.8 µM); in data set [8] it was 0.25 µg/mL (≈ 0.294 µM); with Streptococcus pneumoniae [9] it was 1 µg/mL (≈ 1.18 µM); in the data set with Streptococcus pneumoniae [11], 1 µg/mL (≈ 1.18 µM); in data set [12], 0.25 µg/mL (≈ 0.294 µM). Also, the MIC in the data set on Streptococcus agalactiae [13] was less than 0.03 µg/mL; in the data set on Streptococcus pneumoniae [14], 2 µg/mL (≈ 2.35 µM); with Moraxella catarrhalis [15], 0.25 µg/mL (≈ 0.294 µM); in the data set on Haemophilus influenzae [16], 16 µg/mL (≈ 18.8 µM); in the data set with Streptococcus agalactiae [17] it was 4 µg/mL (≈ 4.71 µM). Further, the half-maximal cytotoxic concentration (CC50) at 48 h in data set [10] was determined as 25.5 µM. Further, in the data set on Enterococcus faecalis, the result was Active.
